Measurements as given in ChEMBL document CHEMBL5649169 (ChemMedChem, 2018).

What was measured:
[1] = target: Tubulin alpha-1C chain (Homo sapiens) (UniProt Q9BQE3); further: assay method not described here
[2] = target: Large ribosomal subunit protein eL36 (Homo sapiens) (UniProt Q9Y3U8); further: assay method not described here
[3] = target: Ribosomal protein S6 kinase alpha-6 (Homo sapiens) (UniProt Q9UK32); further: assay method not described here
[4] = target: AP-3 complex subunit beta-1 (Homo sapiens) (UniProt O00203); further: assay method not described here
[5] = target: Cell division cycle 5-like protein (Homo sapiens) (UniProt Q99459); further: assay method not described here
[6] = target: G2/mitotic-specific cyclin-B2 (Homo sapiens) (UniProt O95067); further: assay method not described here
G2/mitotic-specific cyclin-B2 (Homo sapiens), sequence (O95067 whole entry): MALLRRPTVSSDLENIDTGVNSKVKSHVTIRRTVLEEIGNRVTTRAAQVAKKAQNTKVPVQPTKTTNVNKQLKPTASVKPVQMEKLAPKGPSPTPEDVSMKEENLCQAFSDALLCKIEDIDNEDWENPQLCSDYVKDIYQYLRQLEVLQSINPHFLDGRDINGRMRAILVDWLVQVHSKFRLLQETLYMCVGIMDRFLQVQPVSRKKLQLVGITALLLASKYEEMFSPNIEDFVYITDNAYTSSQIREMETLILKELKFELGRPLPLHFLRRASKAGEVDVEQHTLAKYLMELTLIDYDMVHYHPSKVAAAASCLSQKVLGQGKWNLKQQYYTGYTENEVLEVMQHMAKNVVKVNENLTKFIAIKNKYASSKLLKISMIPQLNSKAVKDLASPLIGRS

[7] = target: tRNA N6-adenosine threonylcarbamoyltransferase (Homo sapiens) (UniProt Q9NPF4); further: assay method not described here
[8] = target: Eukaryotic translation initiation factor 5B (Homo sapiens) (UniProt O60841); further: assay method not described here
[9] = target: Probable ATP-dependent RNA helicase DDX20 (Homo sapiens) (UniProt Q9UHI6); further: assay method not described here
[10] = target: Alkyldihydroxyacetonephosphate synthase, peroxisomal (Homo sapiens) (UniProt O00116); further: assay method not described here
[11] = target: Dynein light chain 2, cytoplasmic (Homo sapiens) (UniProt Q96FJ2); further: assay method not described here
Dynein light chain 2, cytoplasmic (Homo sapiens), sequence (Q96FJ2 whole entry, looked up): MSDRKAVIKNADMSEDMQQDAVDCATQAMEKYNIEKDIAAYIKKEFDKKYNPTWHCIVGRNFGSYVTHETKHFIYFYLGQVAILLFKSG

[12] = target: F-actin-capping protein subunit beta (Homo sapiens) (UniProt P47756); further: assay method not described here
[13] = target: Histone acetyltransferase type B catalytic subunit (Homo sapiens) (UniProt O14929); further: assay method not described here
[14] = target: Bifunctional phosphoribosylaminoimidazole carboxylase/phosphoribosylaminoimidazole succinocarboxamide synthetase (Homo sapiens) (UniProt P22234); further: assay method not described here
[15] = target: Mitogen-activated protein kinase kinase kinase 2 (Homo sapiens) (UniProt Q9Y2U5); further: assay method not described here
[16] = target: 5'-AMP-activated protein kinase subunit beta-2 (Homo sapiens) (UniProt O43741); further: assay method not described here
[17] = target: Apoptosis-inducing factor 1, mitochondrial (Homo sapiens) (UniProt O95831); further: assay method not described here
[18] = target: Heat shock 70 kDa protein 4 (Homo sapiens) (UniProt P34932); further: assay method not described here
Heat shock 70 kDa protein 4 (Homo sapiens), sequence (P34932 whole entry): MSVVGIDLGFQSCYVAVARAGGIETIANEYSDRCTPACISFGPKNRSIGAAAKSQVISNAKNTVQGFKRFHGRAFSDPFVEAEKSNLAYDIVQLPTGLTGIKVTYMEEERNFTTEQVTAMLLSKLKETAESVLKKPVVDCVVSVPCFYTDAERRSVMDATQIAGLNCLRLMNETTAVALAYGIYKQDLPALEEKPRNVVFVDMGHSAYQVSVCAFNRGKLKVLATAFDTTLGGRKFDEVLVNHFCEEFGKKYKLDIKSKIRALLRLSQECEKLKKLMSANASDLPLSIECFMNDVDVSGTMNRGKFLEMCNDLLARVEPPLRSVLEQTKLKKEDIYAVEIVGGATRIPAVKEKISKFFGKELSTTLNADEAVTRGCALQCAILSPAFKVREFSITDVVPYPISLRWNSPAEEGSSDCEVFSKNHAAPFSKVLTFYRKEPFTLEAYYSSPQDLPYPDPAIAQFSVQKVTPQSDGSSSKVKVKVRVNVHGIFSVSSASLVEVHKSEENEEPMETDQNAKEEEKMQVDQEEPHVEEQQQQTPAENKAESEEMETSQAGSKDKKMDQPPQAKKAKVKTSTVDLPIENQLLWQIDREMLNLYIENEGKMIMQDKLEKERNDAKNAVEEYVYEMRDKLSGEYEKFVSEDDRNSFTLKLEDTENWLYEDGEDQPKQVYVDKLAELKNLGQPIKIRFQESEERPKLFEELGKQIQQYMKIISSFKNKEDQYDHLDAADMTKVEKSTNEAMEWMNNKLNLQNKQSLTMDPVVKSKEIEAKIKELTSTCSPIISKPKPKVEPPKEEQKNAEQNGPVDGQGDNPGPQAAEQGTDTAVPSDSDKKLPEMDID

[19] = target: T-complex protein 1 subunit alpha (Homo sapiens) (UniProt P17987); further: assay method not described here
T-complex protein 1 subunit alpha (Homo sapiens), sequence (P17987 whole entry, one chain of several): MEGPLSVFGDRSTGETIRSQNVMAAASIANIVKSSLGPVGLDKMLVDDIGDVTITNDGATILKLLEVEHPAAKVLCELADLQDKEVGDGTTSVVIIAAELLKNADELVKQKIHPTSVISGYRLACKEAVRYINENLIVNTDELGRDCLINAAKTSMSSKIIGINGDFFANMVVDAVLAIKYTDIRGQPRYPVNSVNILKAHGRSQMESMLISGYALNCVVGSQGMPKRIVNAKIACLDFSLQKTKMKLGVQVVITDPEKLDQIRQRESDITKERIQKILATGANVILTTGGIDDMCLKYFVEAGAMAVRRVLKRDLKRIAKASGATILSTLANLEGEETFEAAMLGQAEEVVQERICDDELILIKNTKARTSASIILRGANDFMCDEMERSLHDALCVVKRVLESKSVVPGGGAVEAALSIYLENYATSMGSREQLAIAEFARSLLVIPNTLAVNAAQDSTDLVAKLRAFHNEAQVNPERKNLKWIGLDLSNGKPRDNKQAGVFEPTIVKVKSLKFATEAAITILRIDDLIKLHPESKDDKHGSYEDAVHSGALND

[20] = target: Serine/threonine-protein kinase ULK3 (Homo sapiens) (UniProt Q6PHR2); further: assay method not described here
[21] = target: Heterogeneous nuclear ribonucleoprotein D0 (Homo sapiens) (UniProt Q14103); further: assay method not described here
[22] = target: Rho guanine nucleotide exchange factor 2 (Homo sapiens) (UniProt Q92974); further: assay method not described here
[23] = target: Large ribosomal subunit protein uL2 (Homo sapiens) (UniProt P62917); further: assay method not described here
[24] = target: Peroxisomal acyl-coenzyme A oxidase 3 (Homo sapiens) (UniProt O15254); further: assay method not described here
[25] = target: Dolichyl pyrophosphate Glc1Man9GlcNAc2 alpha-1,3-glucosyltransferase (Homo sapiens) (UniProt Q9BVK2); further: assay method not described here
[26] = target: Lon protease homolog, mitochondrial (Homo sapiens) (UniProt P36776); further: assay method not described here
[27] = target: RNA-binding protein RO60 (Homo sapiens) (UniProt P10155); further: assay method not described here
Ezrin (Homo sapiens) = Ezrin (Homo sapiens) (UniProt P15311); further: assay method not described here
[28] = target: Heterogeneous nuclear ribonucleoprotein M (Homo sapiens) (UniProt P52272); further: assay method not described here
[29] = target: Heterogeneous nuclear ribonucleoprotein H3 (Homo sapiens) (UniProt P31942); further: assay method not described here
[30] = target: LIM domain kinase 1 (Homo sapiens) (UniProt P53667); further: assay method not described here
LIM domain kinase 1 (Homo sapiens), sequence (P53667 whole entry, looked up, the tested form may be a part): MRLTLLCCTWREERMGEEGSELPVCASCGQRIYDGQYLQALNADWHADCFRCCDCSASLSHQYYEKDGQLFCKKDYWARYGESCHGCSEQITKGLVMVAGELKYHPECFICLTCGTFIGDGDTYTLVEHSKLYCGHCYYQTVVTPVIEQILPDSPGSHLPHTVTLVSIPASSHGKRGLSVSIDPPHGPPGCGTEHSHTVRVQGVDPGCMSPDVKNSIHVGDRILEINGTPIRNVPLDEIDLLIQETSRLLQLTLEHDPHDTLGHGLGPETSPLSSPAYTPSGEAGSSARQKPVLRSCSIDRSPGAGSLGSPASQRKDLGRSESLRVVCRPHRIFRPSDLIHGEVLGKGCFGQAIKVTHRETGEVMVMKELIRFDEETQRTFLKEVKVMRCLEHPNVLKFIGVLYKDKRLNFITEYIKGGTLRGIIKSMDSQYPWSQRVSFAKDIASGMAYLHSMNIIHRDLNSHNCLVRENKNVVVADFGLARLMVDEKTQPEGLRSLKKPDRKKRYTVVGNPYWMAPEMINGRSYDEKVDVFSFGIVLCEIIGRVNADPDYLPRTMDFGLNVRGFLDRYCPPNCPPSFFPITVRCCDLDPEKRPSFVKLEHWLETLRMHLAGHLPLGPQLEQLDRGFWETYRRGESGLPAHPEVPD

[31] = target: Monocarboxylate transporter 4 (Homo sapiens) (UniProt O15427); further: assay method not described here
Ephrin type-A receptor 8 = Ephrin type-A receptor 8 (Homo sapiens, UniProt P29322); test: Inhibition of Nano Luc-fused full length C-terminal EPHA8 (unknown origin) expressed in HEK293T cells using NanoGlo as substrate incubated for 2 hrs in presence of tracer by NanoBRET assay; type: cell-based
[32] = target: Importin subunit alpha-1 (Homo sapiens) (UniProt P52292); further: assay method not described here
[33] = target: Cytoplasmic FMR1-interacting protein 1 (Homo sapiens) (UniProt Q7L576); further: assay method not described here
[34] = target: Protein THEM6 (Homo sapiens) (UniProt Q8WUY1); further: assay method not described here
[35] = target: Ephrin type-A receptor 1 (Homo sapiens) (UniProt P21709); further: assay method not described here
Ephrin type-A receptor 1 (Homo sapiens), sequence (P21709 whole entry): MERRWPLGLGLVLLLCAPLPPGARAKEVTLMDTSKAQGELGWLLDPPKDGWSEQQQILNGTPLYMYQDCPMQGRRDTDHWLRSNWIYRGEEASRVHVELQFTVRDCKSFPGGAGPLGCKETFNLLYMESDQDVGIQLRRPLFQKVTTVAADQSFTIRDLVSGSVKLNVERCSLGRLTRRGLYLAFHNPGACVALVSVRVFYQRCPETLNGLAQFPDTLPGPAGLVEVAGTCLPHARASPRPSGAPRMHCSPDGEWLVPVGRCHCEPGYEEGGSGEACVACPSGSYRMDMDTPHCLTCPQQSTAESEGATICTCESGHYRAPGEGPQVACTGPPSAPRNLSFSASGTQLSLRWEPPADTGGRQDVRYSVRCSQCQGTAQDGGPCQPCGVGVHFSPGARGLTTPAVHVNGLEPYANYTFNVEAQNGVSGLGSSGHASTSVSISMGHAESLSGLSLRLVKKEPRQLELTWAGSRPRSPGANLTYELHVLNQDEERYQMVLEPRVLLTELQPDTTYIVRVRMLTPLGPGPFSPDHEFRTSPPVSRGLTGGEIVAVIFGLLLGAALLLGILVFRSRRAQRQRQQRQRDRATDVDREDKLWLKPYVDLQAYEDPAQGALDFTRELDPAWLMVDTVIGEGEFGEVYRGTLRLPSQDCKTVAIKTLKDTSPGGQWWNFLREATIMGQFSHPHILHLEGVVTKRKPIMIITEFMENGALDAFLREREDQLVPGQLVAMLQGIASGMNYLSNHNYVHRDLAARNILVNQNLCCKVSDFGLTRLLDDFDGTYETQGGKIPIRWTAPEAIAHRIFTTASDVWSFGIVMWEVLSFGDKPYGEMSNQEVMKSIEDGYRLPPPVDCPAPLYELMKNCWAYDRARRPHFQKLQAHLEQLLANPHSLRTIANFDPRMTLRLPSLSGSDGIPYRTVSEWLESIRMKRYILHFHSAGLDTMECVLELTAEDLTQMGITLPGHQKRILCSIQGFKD

[36] = target: Signal recognition particle subunit SRP72 (Homo sapiens) (UniProt O76094); further: assay method not described here
[37] = target: BMP-2-inducible protein kinase (Homo sapiens) (UniProt Q9NSY1); further: assay method not described here
[38] = target: Dolichyl-diphosphooligosaccharide--protein glycosyltransferase subunit 1 (Homo sapiens) (UniProt P04843); further: assay method not described here
[39] = target: Protein Aster-A (Homo sapiens) (UniProt Q96CP6); further: assay method not described here
[40] = target: Ribosomal protein S6 kinase alpha-4 (Homo sapiens) (UniProt O75676); further: assay method not described here
Ribosomal protein S6 kinase alpha-4 (Homo sapiens), sequence (O75676 whole entry, looked up): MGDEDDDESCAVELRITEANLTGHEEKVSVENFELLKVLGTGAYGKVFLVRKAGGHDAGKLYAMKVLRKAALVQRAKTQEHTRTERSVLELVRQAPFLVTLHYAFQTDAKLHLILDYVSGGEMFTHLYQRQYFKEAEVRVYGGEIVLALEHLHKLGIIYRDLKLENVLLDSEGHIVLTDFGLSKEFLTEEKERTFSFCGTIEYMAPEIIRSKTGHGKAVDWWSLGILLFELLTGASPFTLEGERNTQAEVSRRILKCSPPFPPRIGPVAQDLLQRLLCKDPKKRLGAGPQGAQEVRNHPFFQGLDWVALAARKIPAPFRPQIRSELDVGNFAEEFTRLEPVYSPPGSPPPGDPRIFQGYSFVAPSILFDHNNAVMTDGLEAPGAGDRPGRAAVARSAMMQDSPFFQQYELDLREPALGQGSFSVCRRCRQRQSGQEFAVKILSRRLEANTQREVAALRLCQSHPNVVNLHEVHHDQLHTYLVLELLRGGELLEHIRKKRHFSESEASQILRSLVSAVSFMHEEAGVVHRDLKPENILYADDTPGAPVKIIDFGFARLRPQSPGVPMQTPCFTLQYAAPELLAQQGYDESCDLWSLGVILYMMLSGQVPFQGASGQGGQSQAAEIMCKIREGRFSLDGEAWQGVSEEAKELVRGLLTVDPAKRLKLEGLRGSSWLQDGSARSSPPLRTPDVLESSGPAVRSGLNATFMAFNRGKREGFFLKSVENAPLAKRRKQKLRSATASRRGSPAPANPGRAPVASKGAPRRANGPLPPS

[41] = target: Poly [ADP-ribose] polymerase 1 (Homo sapiens) (UniProt P09874); further: assay method not described here
[42] = target: Telomere length regulation protein TEL2 homolog (Homo sapiens) (UniProt Q9Y4R8); further: assay method not described here
Wherever ED50 is given: assay method not described here.

Ribosomal protein S6 kinase alpha-6 (Homo sapiens), sequence (Q9UK32 whole entry): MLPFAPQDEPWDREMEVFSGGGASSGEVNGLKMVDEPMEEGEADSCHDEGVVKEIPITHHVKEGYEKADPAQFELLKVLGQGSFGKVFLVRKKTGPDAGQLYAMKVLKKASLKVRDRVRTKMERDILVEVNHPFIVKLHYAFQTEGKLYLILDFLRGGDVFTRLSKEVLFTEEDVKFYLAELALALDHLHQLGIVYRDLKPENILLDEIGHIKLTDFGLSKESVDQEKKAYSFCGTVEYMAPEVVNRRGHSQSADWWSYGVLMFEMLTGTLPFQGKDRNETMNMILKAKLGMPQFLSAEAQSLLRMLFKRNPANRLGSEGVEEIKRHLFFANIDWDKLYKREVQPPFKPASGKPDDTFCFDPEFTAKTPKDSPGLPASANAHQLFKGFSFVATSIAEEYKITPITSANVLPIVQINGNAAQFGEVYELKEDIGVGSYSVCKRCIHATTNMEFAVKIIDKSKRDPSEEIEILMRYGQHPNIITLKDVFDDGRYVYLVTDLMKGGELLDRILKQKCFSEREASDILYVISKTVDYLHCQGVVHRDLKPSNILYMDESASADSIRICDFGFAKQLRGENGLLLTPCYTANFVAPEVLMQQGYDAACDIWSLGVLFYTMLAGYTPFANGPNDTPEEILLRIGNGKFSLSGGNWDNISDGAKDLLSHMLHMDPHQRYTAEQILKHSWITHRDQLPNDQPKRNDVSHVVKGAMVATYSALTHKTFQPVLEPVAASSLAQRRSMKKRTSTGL

For `Cc1ccc(C(=O)Nc2cccc(C(F)(F)F)c2)cc1Nc1nc(-c2cccnc2)nc2c1cnn2C`, the ED50 [1] was 0.00564 µM, the ED50 [2] was 10.5 µM and the ED50 [3] was 0.735 µM. The ED50 [4] was 0.558 µM, the ED50 [5] was 9.84 µM and the ED50 [6] was 3.13 µM. The ED50 [7] was 7.56 µM, the ED50 [8] was 41.8 µM and the ED50 [9] was 0.616 µM. For the same molecule, the ED50 [10] was 0.0016 µM, the ED50 [11] was 0.148 µM and the ED50 [12] was 8.9 µM. The ED50 [13] was 0.183 µM, the ED50 [14] was 0.0205 µM and the ED50 [15] was 0.1 µM. It also gave an ED50 (Homo sapiens) of 7.04 µM, an ED50 [16] of 0.0527 µM and an ED50 [17] of 0.00539 µM. The ED50 [18] was 3.18 µM, the ED50 [19] was 0.0234 µM and the ED50 [20] was 3.54 µM. It also gave an ED50 [21] of 1.15 µM, an ED50 [22] of 9.51 µM and an ED50 [23] of 0.0503 µM. The ED50 [24] was 0.00533 µM, the ED50 [25] was 0.0377 µM and the ED50 [26] was 0.575 µM. For the same molecule, the ED50 [27] was 2.18 µM, the ED50 (Ezrin (Homo sapiens)) was 7.29 µM and the ED50 [28] was 8.57 µM. For the same molecule, the ED50 [29] was 0.00513 µM, the ED50 [30] was 0.772 µM and the ED50 [31] was 4.22 µM. For the same molecule, the IC50 (Ephrin type-A receptor 8) was 0.0012 µM, the ED50 [32] was 7.33 µM and the ED50 [33] was 0.00564 µM. For the same molecule, the ED50 [34] was 1.7 µM, the ED50 [35] was 0.064 µM and the ED50 [36] was 0.00763 µM. The ED50 [37] was 0.0018 µM, the ED50 [38] was 0.13 µM and the ED50 [39] was 29.6 µM. It also gave an ED50 [40] of 0.0142 µM, an ED50 [41] of 7.11 µM and an ED50 [42] of 0.665 µM.
With `Cc1ccc(C(=O)Nc2cccc(C(F)(F)F)c2)cc1Nc1nc(-c2cccnc2)nc2nn(C)cc12` the ED50 [1] was 9.37 µM, the ED50 [2] was 0.0103 µM and the ED50 [3] was 20400 µM. It also gave an ED50 [4] of 0.049 µM, an ED50 [5] of 0.0985 µM and an ED50 [6] of 13.5 µM. The ED50 [7] was 8.47 µM, the ED50 [8] was 383 µM and the ED50 [9] was 0.0285 µM. For the same molecule, the ED50 [10] was 0.486 µM, the ED50 [11] was 0.459 µM and the ED50 [12] was 0.393 µM. It also gave an ED50 [13] of 0.0527 µM, an ED50 [14] of 0.0548 µM and an ED50 [15] of 9.44 µM. It also gave an ED50 (Homo sapiens) of 39.2 µM, an ED50 [16] of 0.0168 µM and an ED50 [17] of 0.182 µM. For the same molecule, the ED50 [18] was 0.0777 µM, the ED50 [19] was 0.082 µM and the ED50 [20] was 0.0784 µM. For the same molecule, the ED50 [21] was 0.0267 µM, the ED50 [22] was 0.0484 µM and the ED50 [23] was 0.121 µM. The ED50 [24] was 7.13 µM, the ED50 [25] was 72.9 µM and the ED50 [26] was 0.0644 µM. It also gave an ED50 [27] of 0.0205 µM, an ED50 (Ezrin (Homo sapiens)) of 0.0827 µM and an ED50 [28] of 13.5 µM. The ED50 [29] was 17.1 µM, the ED50 [30] was 1.53 µM and the ED50 [31] was 2.74 µM. For the same molecule, the IC50 (Ephrin type-A receptor 8) was 0.21 µM, the ED50 [32] was 0.00566 µM and the ED50 [33] was 2.75 µM. The ED50 [34] was 0.0621 µM, the ED50 [35] was 4.58 µM and the ED50 [36] was 0.614 µM. The ED50 [37] was 0.11 µM, the ED50 [38] was 0.0388 µM and the ED50 [39] was 0.495 µM. The ED50 [40] was 0.154 µM, the ED50 [41] was 0.083 µM and the ED50 [42] was 0.000314 µM.
